The values that follow come from ChEMBL document CHEMBL6114946, “Development and characterization of pyridyl carboxamides as potent and highly selective Nav1.8 inhibitors” (Bioorg Med Chem Lett, 2025).

The term clearance denotes a measure of how efficiently the substance is removed, as volume per time. The IC50 is the point on the concentration scale where inhibition reaches its midpoint. For orientation: half-life means the time needed for the level to fall by half in the phase considered. For orientation: inhibition means how much of the control response was suppressed. One may read the bioavailability as the share of a dose that reaches the circulation, judged against a reference dose that is usually intravenous. Usually Papp stands for the rate of passage across a membrane or cell layer, normalised by area and donor concentration. In general, fraction unbound refers to free concentration divided by total concentration. The term efflux ratio denotes a quotient of directional permeabilities that is used to spot active efflux.

A short description of series [1]: Clearance in rat at 1 mg/kg. It counts as ADME, organism-based. The following applies: in vivo.
Series [2] has as its target T1, Sodium channel protein type 10 subunit alpha (Homo sapiens, UniProt Q9Y5Y9). Briefly: Inhibition of Nav1.8 (unknown origin) over expressed in HEK cells assessed as reduction in deltamethrin-stimulated channel activation by FLIPR assay. In kind it is cell-based.
Target sequence in this assay (Q9Y5Y9 whole entry): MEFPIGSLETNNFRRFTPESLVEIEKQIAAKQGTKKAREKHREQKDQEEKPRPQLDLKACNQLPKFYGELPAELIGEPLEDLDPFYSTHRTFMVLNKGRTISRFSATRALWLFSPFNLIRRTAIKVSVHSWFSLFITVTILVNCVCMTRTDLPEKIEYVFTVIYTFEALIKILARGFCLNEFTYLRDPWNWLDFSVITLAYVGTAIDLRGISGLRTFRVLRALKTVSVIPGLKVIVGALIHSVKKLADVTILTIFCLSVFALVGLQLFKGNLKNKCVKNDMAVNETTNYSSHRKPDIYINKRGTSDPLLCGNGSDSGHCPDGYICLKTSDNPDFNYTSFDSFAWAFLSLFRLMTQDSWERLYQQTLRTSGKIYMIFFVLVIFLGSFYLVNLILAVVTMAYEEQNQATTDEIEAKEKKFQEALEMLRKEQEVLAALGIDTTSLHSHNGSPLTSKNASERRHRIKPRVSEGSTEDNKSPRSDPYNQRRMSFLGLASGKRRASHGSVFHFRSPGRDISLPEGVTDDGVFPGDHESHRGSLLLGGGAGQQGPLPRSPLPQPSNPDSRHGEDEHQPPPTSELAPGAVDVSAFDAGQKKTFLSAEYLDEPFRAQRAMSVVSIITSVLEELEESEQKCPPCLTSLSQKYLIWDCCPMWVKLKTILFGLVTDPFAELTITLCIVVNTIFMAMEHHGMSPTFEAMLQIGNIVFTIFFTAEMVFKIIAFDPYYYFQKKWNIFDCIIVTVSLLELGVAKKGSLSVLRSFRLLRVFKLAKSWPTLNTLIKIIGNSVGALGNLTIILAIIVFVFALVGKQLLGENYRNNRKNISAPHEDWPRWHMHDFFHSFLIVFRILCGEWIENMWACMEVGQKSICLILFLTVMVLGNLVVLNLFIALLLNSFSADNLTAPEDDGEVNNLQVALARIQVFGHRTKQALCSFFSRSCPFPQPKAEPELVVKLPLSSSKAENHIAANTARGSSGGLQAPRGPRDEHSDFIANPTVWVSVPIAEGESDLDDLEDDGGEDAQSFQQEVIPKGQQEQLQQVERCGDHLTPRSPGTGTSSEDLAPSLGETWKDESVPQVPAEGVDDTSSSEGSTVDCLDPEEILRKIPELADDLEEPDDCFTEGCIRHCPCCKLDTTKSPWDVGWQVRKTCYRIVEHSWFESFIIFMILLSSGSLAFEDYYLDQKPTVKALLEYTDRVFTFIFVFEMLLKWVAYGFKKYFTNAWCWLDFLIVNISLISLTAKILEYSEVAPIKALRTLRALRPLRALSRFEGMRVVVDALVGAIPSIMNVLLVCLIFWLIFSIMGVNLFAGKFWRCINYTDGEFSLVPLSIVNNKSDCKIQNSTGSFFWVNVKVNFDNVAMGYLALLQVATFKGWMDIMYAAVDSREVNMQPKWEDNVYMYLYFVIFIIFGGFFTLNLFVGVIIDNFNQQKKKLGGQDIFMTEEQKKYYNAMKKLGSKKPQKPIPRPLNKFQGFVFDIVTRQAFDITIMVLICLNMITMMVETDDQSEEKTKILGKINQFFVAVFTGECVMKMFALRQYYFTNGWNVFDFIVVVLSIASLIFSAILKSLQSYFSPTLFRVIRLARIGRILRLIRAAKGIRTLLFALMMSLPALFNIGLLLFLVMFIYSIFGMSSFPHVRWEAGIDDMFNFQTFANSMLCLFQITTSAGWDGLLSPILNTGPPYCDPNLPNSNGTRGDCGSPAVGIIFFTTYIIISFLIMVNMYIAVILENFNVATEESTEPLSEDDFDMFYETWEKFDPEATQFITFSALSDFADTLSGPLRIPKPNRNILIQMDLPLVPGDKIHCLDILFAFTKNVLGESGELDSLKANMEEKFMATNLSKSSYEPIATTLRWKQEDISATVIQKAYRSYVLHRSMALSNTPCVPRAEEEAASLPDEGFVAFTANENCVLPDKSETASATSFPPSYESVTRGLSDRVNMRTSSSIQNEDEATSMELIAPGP
Series [3] can be described thus: Half life in rat. In kind it is ADME. The following applies: in vivo.
For series [4], the target named is T1, Sodium channel protein type 10 subunit alpha. Description: Inhibition of Nav1.8 (unknown origin) at 10 uM by Ionflux high-throughput automated patch method.
Series [5] has the same target. Description: Inhibition of human Nav1.8 with resting membrane potential at half inactivated state by PatchXpress high-throughput electrophysiology method.
Target sequence in this assay (Q9Y5Y9 whole entry): as above
A short description of series [6]: Oral bioavailability in rat at 10 mg/kg. In kind it is ADME, organism-based. The conditions noted are these: in vivo.
Series [7] is described as follows: Inhibition of Nav1.5 (domain 1 and 2)-Nav 1.8 (domain 3 and 4) chimera (unknown origin) with resting membrane potential at half inactivated state by PatchXpress high-throughput electrophysiology method. Further details: species or system Homo sapiens.
The next series has as its target Cytochrome P450 3A4 (Homo sapiens, UniProt P08684). Description: Inhibition of CYP3A4 (unknown origin). In kind it is ADME.
The nature of series [8]: Ratio of drug level in rat brain to plasma at 1 mg/kg, iv measured after 60 mins. In kind it is ADME, organism-based. The following applies: read-out: BPR.
For series [9], the target named is Nav1.2 (sodium channel protein type 2 subunit alpha) (Homo sapiens, UniProt Q99250). Description: Inhibition of Nav1.2 (unknown origin) at 30 uM relative to control. It counts as toxicity.
Series [10] in a line: Apparent permeability in MDCK-MDR1 cells. It counts as ADME, cell-based, Canis lupus familiaris. The following applies: dog.
A short description of series [11]: Kinetic solubility of the compound in pH 7.4 phosphate buffered saline measured after 2 hrs by LC/MS analysis. The conditions noted are these: read-out: Kinetic_solubility. It counts as physicochemical.
Series [12] is described as follows: Volume of distribution at steady state in cynomolgus monkey at 1 mg/kg, iv. It counts as ADME, organism-based, Macaca fascicularis. The following applies: in vivo, read-out: Vdss.
For series [13], the target named is Nav1.1 (sodium channel protein type 1 subunit alpha) (Homo sapiens, UniProt P35498). Description: Inhibition of Nav1.1 (unknown origin) at 30 uM relative to control. In kind it is toxicity.
Series [14] is described as follows: Inhibition of Nav1.8 (domain 1 and 2)-Nav 1.5 (domain 3 and 4) chimera (unknown origin) with resting membrane potential at half inactivated state by PatchXpress high-throughput electrophysiology method. Further details: species or system Homo sapiens.
The target of series [15] is Nav1.7 (sodium channel protein type 9 subunit alpha) (Homo sapiens, UniProt Q15858). Briefly: Inhibition of Nav1.7 (unknown origin) at 30 uM relative to control. In kind it is toxicity.
Series [16] in a line: Volume of distribution at steady state in dog at 1 mg/kg, iv. It counts as ADME, organism-based, Canis lupus familiaris. The following applies: in vivo, read-out: Vdss.
A short description of series [17]: Stability in human liver microsomes assessed as parent compound remaining measured after 60 mins. In kind it is ADME, Microsome. The conditions noted are these: read-out: Stability. Background: Liver microsomes are vesicles of endoplasmic reticulum, rich in cytochrome P450 enzymes.
Series [18] is described as follows: Protein binding in human plasma assessed as unbound fraction. It counts as ADME, cell-free.
Series [19] is described as follows: Oral bioavailability in cynomolgus monkey at 10 mg/kg. In kind it is ADME, organism-based, Macaca fascicularis. The following applies: in vivo.
A short description of series [20]: Oral bioavailability in dog at 10 mg/kg. In kind it is ADME, organism-based, Canis lupus familiaris. The conditions noted are these: in vivo.
The target of series [21] is Sodium channel protein type 10 subunit alpha (Mus musculus, UniProt Q6QIY3). Description: Inhibition of mouse Nav1.8 with resting membrane potential at half inactivated state by PatchXpress high-throughput electrophysiology method.
Sequence of Sodium channel protein type 10 subunit alpha (Mus musculus, UniProt Q6QIY3) (Q6QIY3 whole entry): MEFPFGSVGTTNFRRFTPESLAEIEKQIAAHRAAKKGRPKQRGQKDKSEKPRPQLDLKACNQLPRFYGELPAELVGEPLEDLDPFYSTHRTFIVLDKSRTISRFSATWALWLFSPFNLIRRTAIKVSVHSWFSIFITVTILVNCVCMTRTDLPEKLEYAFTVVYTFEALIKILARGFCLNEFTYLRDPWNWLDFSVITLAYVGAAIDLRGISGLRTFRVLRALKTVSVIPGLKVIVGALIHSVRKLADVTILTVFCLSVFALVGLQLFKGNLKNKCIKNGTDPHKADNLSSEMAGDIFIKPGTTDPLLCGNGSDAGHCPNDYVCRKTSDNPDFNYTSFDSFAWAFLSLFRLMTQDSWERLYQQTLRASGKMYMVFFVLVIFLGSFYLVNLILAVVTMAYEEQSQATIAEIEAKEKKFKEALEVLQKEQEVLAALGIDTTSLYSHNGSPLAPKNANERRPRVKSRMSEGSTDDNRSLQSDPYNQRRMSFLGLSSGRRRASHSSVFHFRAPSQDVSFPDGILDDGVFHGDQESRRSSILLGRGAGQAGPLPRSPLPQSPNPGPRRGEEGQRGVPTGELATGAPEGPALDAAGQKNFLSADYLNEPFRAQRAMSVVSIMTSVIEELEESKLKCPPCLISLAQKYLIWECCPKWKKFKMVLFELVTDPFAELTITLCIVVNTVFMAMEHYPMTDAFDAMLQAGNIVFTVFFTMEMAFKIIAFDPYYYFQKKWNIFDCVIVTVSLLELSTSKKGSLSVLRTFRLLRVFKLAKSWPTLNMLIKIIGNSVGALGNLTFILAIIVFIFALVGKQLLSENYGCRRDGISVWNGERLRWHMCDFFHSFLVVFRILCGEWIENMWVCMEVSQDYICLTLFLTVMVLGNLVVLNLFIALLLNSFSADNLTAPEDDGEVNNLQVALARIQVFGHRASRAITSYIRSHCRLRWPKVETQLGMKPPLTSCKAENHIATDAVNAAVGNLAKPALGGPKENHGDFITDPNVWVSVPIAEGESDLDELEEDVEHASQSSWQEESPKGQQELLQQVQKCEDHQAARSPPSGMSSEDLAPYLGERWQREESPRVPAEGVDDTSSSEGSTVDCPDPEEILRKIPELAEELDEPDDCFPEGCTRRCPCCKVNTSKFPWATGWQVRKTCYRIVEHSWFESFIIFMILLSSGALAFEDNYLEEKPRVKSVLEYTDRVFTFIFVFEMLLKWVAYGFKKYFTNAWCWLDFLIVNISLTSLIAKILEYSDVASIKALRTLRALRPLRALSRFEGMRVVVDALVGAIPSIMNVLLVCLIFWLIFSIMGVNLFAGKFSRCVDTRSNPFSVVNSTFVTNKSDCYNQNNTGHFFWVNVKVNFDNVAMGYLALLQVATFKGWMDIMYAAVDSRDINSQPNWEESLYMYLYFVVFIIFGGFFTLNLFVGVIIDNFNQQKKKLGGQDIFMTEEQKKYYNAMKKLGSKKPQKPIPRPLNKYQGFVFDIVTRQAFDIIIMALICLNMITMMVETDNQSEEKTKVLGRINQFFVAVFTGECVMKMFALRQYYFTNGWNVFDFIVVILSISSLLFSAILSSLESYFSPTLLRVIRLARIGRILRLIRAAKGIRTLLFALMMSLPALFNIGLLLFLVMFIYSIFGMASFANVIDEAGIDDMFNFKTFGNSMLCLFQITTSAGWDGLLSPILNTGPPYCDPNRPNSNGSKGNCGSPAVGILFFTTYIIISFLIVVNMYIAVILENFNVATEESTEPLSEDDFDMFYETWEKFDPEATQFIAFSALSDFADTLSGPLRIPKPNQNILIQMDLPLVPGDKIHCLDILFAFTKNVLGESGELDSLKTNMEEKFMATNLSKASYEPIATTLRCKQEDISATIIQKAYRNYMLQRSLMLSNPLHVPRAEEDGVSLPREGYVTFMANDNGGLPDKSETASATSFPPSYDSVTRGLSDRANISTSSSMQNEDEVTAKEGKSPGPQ
For series [22], the target named is Nav1.5 (sodium channel protein type 5 subunit alpha) (Homo sapiens, UniProt Q14524). Briefly: Inhibition of Nav1.5 (unknown origin) at 30 uM relative to control. In kind it is toxicity.
Series [23] is described as follows: Clearance in dog at 1 mg/kg. It counts as ADME, organism-based, Canis lupus familiaris. The following applies: in vivo.
Series [24] addresses Nav1.6 (sodium channel protein type 8 subunit alpha) (Homo sapiens, UniProt Q9UQD0). Description: Inhibition of Nav1.6 (unknown origin) at 30 uM relative to control. In kind it is toxicity.
Series [25] has as its target T1, Sodium channel protein type 10 subunit alpha. Description: Inhibition of Nav1.8 (unknown origin) over expressed in HEK cells exposed to 120th depolarizing pulse at 10 Hz train of action potential at 35 nM. In kind it is cell-based.
Series [26] is described as follows: Clearance in cynomolgus monkey at 1 mg/kg. It counts as ADME, organism-based, Macaca fascicularis. The conditions noted are these: in vivo.
Series [27] has as its target Nav1.4 (sodium channel protein type 4 subunit alpha) (Homo sapiens, UniProt P35499). Description: Inhibition of Nav1.4 (unknown origin) at 30 uM relative to control. In kind it is toxicity.
Series [28] concerns the target Nav1.3 (sodium channel protein type 3 subunit alpha) (Homo sapiens, UniProt Q9NY46). Briefly: Inhibition of Nav1.3 (unknown origin) at 30 uM relative to control. It counts as toxicity.
Series [29] has as its target Voltage-gated inwardly rectifying potassium channel KCNH2 (Homo sapiens, UniProt Q12809). Description: Inhibition of human ERG. In kind it is toxicity.
The target in another series is T2, Cytochrome P450 1A2 (Homo sapiens, UniProt P05177).
T2 sequence (P05177 whole entry): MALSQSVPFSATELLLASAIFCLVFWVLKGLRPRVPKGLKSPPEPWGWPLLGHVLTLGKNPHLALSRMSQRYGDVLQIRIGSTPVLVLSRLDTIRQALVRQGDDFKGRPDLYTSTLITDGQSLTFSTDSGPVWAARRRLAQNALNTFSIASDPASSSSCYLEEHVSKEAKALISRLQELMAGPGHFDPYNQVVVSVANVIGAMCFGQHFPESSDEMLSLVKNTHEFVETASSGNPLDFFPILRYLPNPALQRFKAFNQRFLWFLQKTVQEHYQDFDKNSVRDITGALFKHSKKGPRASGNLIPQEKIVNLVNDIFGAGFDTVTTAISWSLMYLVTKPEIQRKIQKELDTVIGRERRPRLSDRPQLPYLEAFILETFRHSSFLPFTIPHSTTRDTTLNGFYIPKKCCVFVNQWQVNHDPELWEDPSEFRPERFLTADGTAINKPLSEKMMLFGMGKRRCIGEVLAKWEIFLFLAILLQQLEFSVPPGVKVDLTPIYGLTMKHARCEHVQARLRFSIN
Description: Inhibition of CYP1A2 (unknown origin). It counts as ADME.

Series [30] can be described thus: Efflux ratio of apparent permeability in MDCK-MDR1 cells. It counts as ADME, cell-based, Canis lupus familiaris. The conditions noted are these: dog.
Series [31] concerns the target T1, Sodium channel protein type 10 subunit alpha. Briefly: Inhibition of human Nav1.8 with resting membrane potential by PatchXpress high-throughput electrophysiology method.
Target sequence in this assay (Q9Y5Y9 whole entry): as the sequence (Q9Y5Y9 whole entry) above
Series [32] can be described thus: Volume of distribution at steady state in rat at 1 mg/kg, iv. It counts as ADME, organism-based. The conditions noted are these: in vivo, read-out: Vdss.
In series [33] the target is T1, Sodium channel protein type 10 subunit alpha. Briefly: Inhibition of Nav1.8 (unknown origin) over expressed in HEK cells exposed to 1st depolarizing pulse at 10 Hz train of action potential at 35 nM. In kind it is cell-based.
For series [34] the target is unchanged. Briefly: Inhibition of Nav1.8 (unknown origin) over expressed in HEK cells exposed to 1st depolarizing pulse at 10 Hz train of action potential at 12 nM. In kind it is cell-based.
Series [35] shares this target. Briefly: Inhibition of Nav1.8 (unknown origin) over expressed in HEK cells exposed to 120th depolarizing pulse at 10 Hz train of action potential at 12 nM. It counts as cell-based.
The target in another series is Cytochrome P450 2C9 (Homo sapiens, UniProt P11712). Briefly: Inhibition of CYP2C9 (unknown origin) at 2 to 8 uM. In kind it is ADME. The conditions noted are these: dose 2-8 µM.

SMILES strings stand for the structures. Values after ≈ are worked out from the molar mass of the structure shown. Active and inactive are the calls of the source.

Sequence of Voltage-gated inwardly rectifying potassium channel KCNH2 (Q12809 whole entry): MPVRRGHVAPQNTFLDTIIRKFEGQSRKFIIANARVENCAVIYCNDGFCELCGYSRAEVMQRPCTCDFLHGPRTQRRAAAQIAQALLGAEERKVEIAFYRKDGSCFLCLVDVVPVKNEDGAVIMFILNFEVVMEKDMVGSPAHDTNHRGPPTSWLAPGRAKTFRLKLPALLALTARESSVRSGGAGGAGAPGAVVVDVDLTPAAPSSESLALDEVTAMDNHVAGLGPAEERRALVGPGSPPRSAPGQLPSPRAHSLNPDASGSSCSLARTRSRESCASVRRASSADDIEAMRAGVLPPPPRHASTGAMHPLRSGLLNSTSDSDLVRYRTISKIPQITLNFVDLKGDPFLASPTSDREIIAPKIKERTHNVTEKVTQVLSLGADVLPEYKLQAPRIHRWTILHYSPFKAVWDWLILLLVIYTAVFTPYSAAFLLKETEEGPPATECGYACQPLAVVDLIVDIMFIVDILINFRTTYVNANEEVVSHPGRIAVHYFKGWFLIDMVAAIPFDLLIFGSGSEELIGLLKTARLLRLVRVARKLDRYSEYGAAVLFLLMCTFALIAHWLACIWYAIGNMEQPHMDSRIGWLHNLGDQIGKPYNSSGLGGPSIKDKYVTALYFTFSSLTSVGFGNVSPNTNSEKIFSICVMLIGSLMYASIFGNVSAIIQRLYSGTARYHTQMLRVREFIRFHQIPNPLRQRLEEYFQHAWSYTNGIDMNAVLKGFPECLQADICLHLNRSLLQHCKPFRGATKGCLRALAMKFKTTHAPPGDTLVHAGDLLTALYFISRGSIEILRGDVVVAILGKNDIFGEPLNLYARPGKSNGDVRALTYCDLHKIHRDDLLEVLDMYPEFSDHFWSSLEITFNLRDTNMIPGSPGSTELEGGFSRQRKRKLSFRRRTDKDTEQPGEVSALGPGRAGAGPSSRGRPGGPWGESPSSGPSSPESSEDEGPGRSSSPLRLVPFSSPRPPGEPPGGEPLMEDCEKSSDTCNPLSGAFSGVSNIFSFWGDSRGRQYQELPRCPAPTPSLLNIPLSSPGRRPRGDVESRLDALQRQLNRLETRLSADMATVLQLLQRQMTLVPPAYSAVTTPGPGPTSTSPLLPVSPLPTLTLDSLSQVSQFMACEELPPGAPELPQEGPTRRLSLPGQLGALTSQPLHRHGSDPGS

Molecule `COc1cc(F)ccc1Oc1ncc(C(F)(F)F)cc1C(=O)Nc1cccc(S(C)(=O)=O)c1` yielded a clearance in series [1] of 16 mL/min/kg. The IC50 is 60 nM in series [2] and 14 nM in [5]. The same molecule gave a half-life in series [3] of 5.6 h. In series [4], the inhibition result is “Active”. In [6], this molecule displayed a bioavailability of 14%.
Turning to `Cc1cc(F)ccc1Oc1ncc(C(F)(F)F)cc1C(=O)Nc1cccc([S@](C)(=N)=O)c1`, the IC50 was greater than 30000 nM in series [7]; 35 nM in series [5]; 40 nM in [14]; 3040 nM in series [21]; greater than 30000 nM in series [29]; 53 nM in series [31]. Further, the INH at Cytochrome P450 3A4 and at Cytochrome P450 1A2 was greater than 30 µM throughout. Moreover, the clearance in series [1] turned out to be 6.1 mL/min/kg; in series [23] it was 1.7 mL/min/kg; in series [26], 7.7 mL/min/kg. In series [8], the Kp at 1 h was determined as 0.6. Moreover, the inhibition at 30 µM in series [9], in series [13], in series [15], in series [22], in series [24] and in series [27] was less than 25% in each case. This molecule also displayed an inhibition at 30 µM in series [28] of less than 25%. In [10], the Papp was determined as 18.1 ×10⁻⁶ cm/s. Moreover, the solubility kinetic at 2 h in series [11] came to 65 µg/mL (≈ 139 µM). Also, the inhibition result in [4] is “Active”. The Vd in series [12] stood at 1.9 L/kg; in [16] it was 1.2 L/kg; in series [32] it was 1.8 L/kg. Besides, the remaining at 1 h in series [17] was greater than 95%. In addition, the fraction unbound in series [18] came out at 0.14. The bioavailability in series [19] was 61%; in series [20] it was 39%; in series [6] it was 80%. Also, the values for the inhibition in [25] and in series [33] were 35.5% and 33.8%, respectively. The efflux ratio in [30] was 0.8.
As for `CS(=N)(=O)c1cccc(NC(=O)c2cc(C(F)(F)F)cnc2Oc2ccc(F)cc2Cl)c1` (centres undefined), the half-inhibitory concentration (IC50) was 9310 nM in series [7]; 12 nM in series [5]; 660 nM in series [21]; greater than 30000 nM in series [29]; 43 nM in [31]. Besides, the INH at Cytochrome P450 3A4 and on Cytochrome P450 1A2 was greater than 30 µM each time. Further, the clearance in series [1] was 5.9 mL/min/kg; in series [23], 3.6 mL/min/kg; in [26], 2.5 mL/min/kg. For the same molecule, the Kp at 1 h in [8] came to 0.89. Further, the inhibition at 30 µM in series [9], in series [13], in series [15], in [22], in series [24] and in series [27] was less than 25% throughout. The inhibition at 30 µM in series [28] was less than 25%. Moreover, the Papp in series [10] is 15.5 ×10⁻⁶ cm/s. Also, the solubility kinetic at 2 h in [11] was determined as 26 µg/mL (≈ 53.3 µM). Further, in series [4], the inhibition result was “Active”. In addition, the values for the Vd in series [12], in series [16] and in [32] were 2.9 L/kg, 2 L/kg and 1.9 L/kg, respectively. Moreover, the remaining at 1 h in series [17] was greater than 95%. Also, the unbound share (fraction unbound) in series [18] was 0.073. Besides, the bioavailability in series [19] stood at 98%; in series [20], 61%; in series [6] it was 86%. Further, the inhibition in series [34] was 25.4%; in [35], 24.9%. The efflux ratio in series [30] worked out at 0.8.
Turning to `COc1cc(F)ccc1Oc1cc(C(F)(F)F)ncc1C(=O)Nc1ccnnc1`, the INH on Cytochrome P450 3A4 is greater than 30 µM; at Cytochrome P450 1A2, 4 µM. For the same molecule, the figures for the clearance in series [1] and in series [23] were 24 mL/min/kg and 11 mL/min/kg, respectively. In [10], the Papp was 63 ×10⁻⁶ cm/s. Further, the solubility kinetic at 2 h in series [11] was found to be 95 µg/mL (≈ 233 µM). Further, the inhibition entry in series [4] is “Active”. Further, the half-inhibitory concentration (IC50) in series [5] is 71 nM; in [21], 3100 nM; in series [29], greater than 30000 nM. Further, the Vd came out at 3.4 L/kg in [16] and 1 L/kg in series [32]. For the same molecule, the remaining at 1 h in [17] was determined as 95%. The fraction unbound in [18] is 0.15. Further, the “inhibition (INH)” value on Cytochrome P450 2C9 is on record as “Moderate_effect”. For the same molecule, the values for the bioavailability in series [20] and in series [6] were 100% and 45%, respectively. Besides, in [30], the efflux ratio is 0.7.
